Assays:
[1] = target: Gamma-aminobutyric acid receptor subunit alpha-1/alpha-2/beta-2/gamma-2 (Homo sapiens, UniProt P14867+P18507+P47869+P47870); format: protein-complex assay
Glucagon receptor = Glucagon receptor (Homo sapiens, UniProt P47871)
Progesterone receptor = target: T1, Progesterone receptor (Homo sapiens, UniProt P06401)
T1 sequence (P06401 whole entry): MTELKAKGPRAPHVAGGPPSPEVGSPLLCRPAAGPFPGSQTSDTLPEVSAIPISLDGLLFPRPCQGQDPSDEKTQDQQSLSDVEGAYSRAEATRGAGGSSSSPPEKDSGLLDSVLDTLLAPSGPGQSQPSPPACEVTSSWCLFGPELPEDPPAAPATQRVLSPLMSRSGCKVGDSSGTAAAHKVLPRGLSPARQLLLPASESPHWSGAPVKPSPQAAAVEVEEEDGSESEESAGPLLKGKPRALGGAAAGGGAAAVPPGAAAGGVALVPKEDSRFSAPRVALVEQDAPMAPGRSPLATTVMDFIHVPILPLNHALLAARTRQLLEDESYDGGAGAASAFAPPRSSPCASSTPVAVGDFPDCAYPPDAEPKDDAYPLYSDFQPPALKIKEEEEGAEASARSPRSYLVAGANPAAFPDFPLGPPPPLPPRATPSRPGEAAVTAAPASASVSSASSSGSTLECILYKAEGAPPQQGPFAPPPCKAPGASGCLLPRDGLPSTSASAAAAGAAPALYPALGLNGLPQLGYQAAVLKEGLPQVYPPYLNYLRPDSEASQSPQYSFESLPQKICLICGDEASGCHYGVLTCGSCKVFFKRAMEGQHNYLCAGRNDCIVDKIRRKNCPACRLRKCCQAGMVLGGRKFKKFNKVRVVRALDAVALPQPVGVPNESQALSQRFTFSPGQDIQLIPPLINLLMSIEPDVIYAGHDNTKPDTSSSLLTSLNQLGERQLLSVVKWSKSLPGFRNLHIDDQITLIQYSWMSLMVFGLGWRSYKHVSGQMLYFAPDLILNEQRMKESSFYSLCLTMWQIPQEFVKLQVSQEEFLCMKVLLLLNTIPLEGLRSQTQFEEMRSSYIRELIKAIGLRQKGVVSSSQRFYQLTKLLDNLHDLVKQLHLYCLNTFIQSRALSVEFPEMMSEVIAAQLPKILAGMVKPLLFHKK

[2] = target: T2, Peroxisome proliferator-activated receptor gamma (Homo sapiens, UniProt P37231); format: functional
T2 sequence (P37231 whole entry): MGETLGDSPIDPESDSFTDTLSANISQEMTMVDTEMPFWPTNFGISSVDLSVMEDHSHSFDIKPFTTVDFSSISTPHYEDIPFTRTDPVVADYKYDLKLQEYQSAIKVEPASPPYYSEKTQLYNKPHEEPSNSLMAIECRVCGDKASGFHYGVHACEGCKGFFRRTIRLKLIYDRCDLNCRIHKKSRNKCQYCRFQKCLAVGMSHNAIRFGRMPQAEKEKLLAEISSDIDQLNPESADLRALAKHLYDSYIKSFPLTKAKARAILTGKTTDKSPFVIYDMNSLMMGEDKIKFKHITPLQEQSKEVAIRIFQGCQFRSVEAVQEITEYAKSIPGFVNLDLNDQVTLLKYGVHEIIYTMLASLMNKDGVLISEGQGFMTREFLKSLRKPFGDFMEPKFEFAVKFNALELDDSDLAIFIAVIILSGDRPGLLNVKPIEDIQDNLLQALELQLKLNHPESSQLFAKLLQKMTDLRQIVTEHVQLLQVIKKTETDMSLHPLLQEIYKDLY

[3] = target: T2, Peroxisome proliferator-activated receptor gamma; format: functional; remark: listed apart in the source
D(1A) dopamine receptor = D(1A) dopamine receptor (Homo sapiens, UniProt P21728)
[4] = target: 5-hydroxytryptamine receptor 2A (Homo sapiens, UniProt P28223); format: functional, cell-based
Androgen receptor = target: T3, Androgen receptor (Homo sapiens, UniProt P10275)
T3 sequence (P10275 whole entry): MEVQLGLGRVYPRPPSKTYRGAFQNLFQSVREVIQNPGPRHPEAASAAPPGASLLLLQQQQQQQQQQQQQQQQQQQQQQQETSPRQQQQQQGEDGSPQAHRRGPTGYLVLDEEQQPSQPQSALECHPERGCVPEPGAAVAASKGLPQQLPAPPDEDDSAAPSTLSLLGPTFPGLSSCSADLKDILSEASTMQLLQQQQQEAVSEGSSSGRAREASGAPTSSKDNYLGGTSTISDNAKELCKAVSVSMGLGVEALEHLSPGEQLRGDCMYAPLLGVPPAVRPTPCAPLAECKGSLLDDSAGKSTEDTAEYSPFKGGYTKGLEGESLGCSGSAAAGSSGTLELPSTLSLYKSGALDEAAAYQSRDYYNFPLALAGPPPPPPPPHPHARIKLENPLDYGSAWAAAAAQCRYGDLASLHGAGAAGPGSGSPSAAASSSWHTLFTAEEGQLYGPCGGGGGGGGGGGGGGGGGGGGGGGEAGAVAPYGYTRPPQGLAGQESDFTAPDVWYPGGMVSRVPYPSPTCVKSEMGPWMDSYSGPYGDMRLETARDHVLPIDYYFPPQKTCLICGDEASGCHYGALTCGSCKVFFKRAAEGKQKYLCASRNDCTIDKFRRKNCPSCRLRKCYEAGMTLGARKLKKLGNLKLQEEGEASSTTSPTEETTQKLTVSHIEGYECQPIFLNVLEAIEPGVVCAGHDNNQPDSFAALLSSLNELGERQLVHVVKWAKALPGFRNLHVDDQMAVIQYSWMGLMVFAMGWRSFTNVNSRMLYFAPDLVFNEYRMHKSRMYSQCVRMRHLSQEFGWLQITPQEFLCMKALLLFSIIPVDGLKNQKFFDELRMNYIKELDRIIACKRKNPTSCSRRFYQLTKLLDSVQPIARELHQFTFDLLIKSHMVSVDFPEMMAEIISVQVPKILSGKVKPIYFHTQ
Note: assay procedure not described here.

Sequence of Glucagon receptor (P47871 whole entry): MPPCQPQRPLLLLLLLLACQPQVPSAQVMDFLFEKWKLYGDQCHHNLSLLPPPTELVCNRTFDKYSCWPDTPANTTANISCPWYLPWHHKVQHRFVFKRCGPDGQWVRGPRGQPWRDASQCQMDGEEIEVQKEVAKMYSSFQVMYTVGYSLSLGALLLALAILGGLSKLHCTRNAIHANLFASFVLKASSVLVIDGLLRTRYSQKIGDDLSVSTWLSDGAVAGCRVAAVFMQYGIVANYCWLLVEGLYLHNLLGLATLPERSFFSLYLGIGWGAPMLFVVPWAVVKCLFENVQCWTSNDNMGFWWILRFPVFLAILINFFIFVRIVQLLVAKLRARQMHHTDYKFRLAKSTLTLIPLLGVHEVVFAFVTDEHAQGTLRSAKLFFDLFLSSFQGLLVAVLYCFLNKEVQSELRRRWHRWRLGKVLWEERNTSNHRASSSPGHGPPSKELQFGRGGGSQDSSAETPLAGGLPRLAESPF
Sequence of D(1A) dopamine receptor (P21728 whole entry): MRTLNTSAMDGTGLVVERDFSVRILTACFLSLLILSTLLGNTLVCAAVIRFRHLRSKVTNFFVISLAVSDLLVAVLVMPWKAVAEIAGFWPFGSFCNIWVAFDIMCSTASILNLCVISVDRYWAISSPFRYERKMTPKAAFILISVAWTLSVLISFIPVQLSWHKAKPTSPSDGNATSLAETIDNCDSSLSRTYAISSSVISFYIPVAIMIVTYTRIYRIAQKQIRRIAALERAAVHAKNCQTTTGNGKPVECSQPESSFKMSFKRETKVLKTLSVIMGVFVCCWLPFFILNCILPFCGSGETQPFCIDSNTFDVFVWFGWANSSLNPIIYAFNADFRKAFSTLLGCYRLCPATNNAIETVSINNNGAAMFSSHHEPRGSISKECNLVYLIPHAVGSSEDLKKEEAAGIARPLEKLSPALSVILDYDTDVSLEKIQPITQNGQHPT
Sequence of 5-hydroxytryptamine receptor 2A (P28223 whole entry): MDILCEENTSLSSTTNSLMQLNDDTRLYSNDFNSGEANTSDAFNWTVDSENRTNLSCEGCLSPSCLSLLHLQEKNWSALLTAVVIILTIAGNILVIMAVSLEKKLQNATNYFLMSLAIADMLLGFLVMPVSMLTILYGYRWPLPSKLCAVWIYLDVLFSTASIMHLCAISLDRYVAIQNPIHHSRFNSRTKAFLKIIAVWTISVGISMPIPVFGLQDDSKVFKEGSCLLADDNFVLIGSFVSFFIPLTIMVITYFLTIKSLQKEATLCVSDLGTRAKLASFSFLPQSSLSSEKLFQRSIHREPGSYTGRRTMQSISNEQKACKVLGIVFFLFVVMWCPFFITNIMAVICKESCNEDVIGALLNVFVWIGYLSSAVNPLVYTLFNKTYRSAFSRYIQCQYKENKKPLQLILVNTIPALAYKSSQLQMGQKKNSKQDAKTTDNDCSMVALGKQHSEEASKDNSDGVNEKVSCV
Sequence of Gamma-aminobutyric acid receptor subunit alpha-1/alpha-2/beta-2/gamma-2 (P14867 whole entry): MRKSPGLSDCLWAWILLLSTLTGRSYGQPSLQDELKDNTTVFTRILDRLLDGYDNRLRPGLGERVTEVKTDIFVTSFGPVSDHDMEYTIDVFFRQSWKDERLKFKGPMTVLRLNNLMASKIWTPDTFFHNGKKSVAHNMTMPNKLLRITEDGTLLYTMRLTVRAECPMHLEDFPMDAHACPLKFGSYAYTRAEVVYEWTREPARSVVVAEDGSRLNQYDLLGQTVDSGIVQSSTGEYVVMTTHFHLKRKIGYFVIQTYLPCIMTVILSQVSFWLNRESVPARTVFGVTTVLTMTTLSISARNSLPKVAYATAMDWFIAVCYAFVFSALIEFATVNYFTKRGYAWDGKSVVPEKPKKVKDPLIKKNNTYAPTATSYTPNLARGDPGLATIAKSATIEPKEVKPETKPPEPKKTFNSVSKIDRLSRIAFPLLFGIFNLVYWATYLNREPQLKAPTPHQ
Sequence of Gamma-aminobutyric acid receptor subunit alpha-1/alpha-2/beta-2/gamma-2 (P47870 whole entry): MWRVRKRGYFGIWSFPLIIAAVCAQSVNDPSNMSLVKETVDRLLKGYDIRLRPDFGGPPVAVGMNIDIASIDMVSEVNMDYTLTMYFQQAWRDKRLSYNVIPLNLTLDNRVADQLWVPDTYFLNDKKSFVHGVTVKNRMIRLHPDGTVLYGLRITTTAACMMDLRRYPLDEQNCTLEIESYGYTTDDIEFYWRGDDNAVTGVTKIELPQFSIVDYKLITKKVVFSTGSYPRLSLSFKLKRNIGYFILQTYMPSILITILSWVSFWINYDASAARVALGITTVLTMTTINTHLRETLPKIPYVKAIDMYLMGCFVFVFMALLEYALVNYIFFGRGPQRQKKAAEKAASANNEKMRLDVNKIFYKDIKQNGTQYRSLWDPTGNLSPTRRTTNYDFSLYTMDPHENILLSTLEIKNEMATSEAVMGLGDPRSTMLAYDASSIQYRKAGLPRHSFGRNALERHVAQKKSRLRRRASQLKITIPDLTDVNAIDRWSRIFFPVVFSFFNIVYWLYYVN
Sequence of Gamma-aminobutyric acid receptor subunit alpha-1/alpha-2/beta-2/gamma-2 (P18507 whole entry): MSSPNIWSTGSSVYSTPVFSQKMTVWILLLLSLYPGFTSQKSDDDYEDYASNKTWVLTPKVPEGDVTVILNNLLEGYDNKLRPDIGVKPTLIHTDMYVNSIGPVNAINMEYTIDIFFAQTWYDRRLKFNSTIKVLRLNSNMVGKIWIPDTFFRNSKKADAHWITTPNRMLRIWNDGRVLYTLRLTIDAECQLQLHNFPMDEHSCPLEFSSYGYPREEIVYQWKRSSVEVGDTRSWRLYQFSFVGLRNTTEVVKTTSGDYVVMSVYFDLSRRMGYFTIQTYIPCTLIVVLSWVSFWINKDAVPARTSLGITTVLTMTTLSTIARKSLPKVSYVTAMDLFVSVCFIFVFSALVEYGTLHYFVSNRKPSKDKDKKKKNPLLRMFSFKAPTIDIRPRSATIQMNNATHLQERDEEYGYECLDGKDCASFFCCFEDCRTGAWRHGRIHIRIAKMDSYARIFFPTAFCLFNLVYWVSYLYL
Sequence of Gamma-aminobutyric acid receptor subunit alpha-1/alpha-2/beta-2/gamma-2 (P47869 whole entry): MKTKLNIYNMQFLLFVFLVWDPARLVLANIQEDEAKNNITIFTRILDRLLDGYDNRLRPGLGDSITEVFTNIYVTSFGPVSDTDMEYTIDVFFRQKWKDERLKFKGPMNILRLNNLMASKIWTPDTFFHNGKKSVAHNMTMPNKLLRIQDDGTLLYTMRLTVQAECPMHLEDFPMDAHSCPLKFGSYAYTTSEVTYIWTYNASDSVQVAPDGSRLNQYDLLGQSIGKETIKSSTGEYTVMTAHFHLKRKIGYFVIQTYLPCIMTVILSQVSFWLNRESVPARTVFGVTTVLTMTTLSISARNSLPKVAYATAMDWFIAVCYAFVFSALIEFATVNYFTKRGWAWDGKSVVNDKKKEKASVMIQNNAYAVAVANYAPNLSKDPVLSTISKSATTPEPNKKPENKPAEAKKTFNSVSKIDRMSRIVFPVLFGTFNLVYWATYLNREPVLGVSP

Structure (SMILES) | AC50 [1] [µM] | AC50 (Glucagon receptor) [µM] | AC50 (Progesterone receptor) [µM] | AC50 [2] [µM] | AC50 [3] [µM] | AC50 (D(1A) dopamine receptor) [µM] | AC50 [4] [µM] | AC50 (Androgen receptor) [µM]
Cc1onc(-c2ccccc2)c1-c1ccc(S(N)(=O)=O)cc1 [VALDECOXIB] | > 30 | > 30 | > 30 | > 30 | > 30 | > 10 | – | –
OC[C@H]1O[C@@](CO)(O[C@H]2O[C@H](CO)[C@@H](O)[C@H](O)[C@H]2O)[C@@H](O)[C@@H]1O [SUCROSE] | – | – | – | > 30 | > 30 | – | > 30 | –
C=CC[C@@H]1/C=C(\C)C[C@H](C)C[C@H](OC)[C@H]2O[C@@](O)(C(=O)C(=O)N3CCCC[C@H]3C(=O)O[C@H](/C(C)=C/[C@@H]3CC[C@@H](O)[C@H](OC)C3)[C@H](C)[C@@H](O)CC1=O)[C@H](C)C[C@@H]2OC [TACROLIMUS ANHYDROUS] | – | > 30 | > 30 | > 30 | > 30 | > 10 | – | –
CCN1CCN(Cc2ccc(Nc3ncc(F)c(-c4cc(F)c5nc(C)n(C(C)C)c5c4)n3)nc2)CC1 [ABEMACICLIB] | – | – | – | > 30 | > 30 | – | > 30 | –
N[C@@H](CC(=O)N1CCn2c(nnc2C(F)(F)F)C1)Cc1cc(F)c(F)cc1F [SITAGLIPTIN] | – | – | – | > 30 | > 30 | > 10 | – | –
CN1C[C@H](C(=O)N[C@]2(C)O[C@@]3(O)[C@@H]4CCCN4C(=O)[C@H](Cc4ccccc4)N3C2=O)C=C2c3cccc4[nH]cc(c34)C[C@H]21 [ERGOTAMINE] | – | – | – | > 30 | > 30 | – | – | –
COc1ccccc1OCCNCC(O)COc1cccc2[nH]c3ccccc3c12 (centres undefined) [CARVEDILOL] | – | > 30 | > 30 | > 30 | 28 | 2.28 | – | –
C[C@@H](Oc1cc(-c2cnn(C3CCNCC3)c2)cnc1N)c1c(Cl)ccc(F)c1Cl [CRIZOTINIB] | – | > 30 | – | > 30 | > 30 | > 10 | – | –
COc1cc2nccc(Oc3ccc(NC(=O)C4(C(=O)Nc5ccc(F)cc5)CC4)cc3)c2cc1OC [CABOZANTINIB] | > 30 | – | – | > 30 | > 30 | – | > 30 | > 30
CC(C)c1nc(N(C)S(C)(=O)=O)nc(-c2ccc(F)cc2)c1/C=C/[C@@H](O)C[C@@H](O)CC(=O)O [ROSUVASTATIN] | – | – | – | > 30 | > 30 | – | > 30 | –
C[C@H](CCC(=O)O)[C@H]1CC[C@H]2[C@@H]3[C@@H](O)C[C@@H]4C[C@H](O)CC[C@]4(C)[C@H]3CC[C@]12C [URSODIOL] | – | – | – | > 30 | > 30 | – | > 30 | –
CC(S)C(=O)NCC(=O)O (centres undefined) [TIOPRONIN] | – | – | – | > 30 | > 30 | – | > 30 | –
CC(C)Cc1ccc(C(C)C(=O)O)cc1 (centres undefined) [IBUPROFEN] | > 30 | > 30 | > 30 | – | – | > 10 | – | –

Source: ChEMBL document CHEMBL5291721, “A preclinical secondary pharmacology resource illuminates target-adverse drug reaction associations of marketed drugs” (Nat Commun, 2023)
